According to PubChem BioAssay AID330 (DTP/NCI, 2004):
“And” between values parts separate entries of the source, which are not always exact repeats. Equal values may be shown once. Inconclusive results and toxic doses are left out. Square brackets hold non-standard residues; d marks the D form. Peptide text beside a SMILES is read from it. ξ: configuration not given here. ξAbu = CCC(N)C(=O)O

Test system: P388 leukemia ip, CD2F1 mice, survival T/C
Experiment: NCI In Vivo Anticancer Drug Screen. Data for tumor model P388 Leukemia (intraperitoneal) in CD2F1 (CDF1) mice
Settings: endpoint: median survival time, higher = longer survival
How it was run: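 Mice carrying the transplanted tumor received test compound or vehicle. Survival was recorded in each group, and the value is the treated-group measurement divided by that of the vehicle-treated control group.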

[1] = dose: 100.0 mg/kg/injection, schedule: Q04DX003 (ip), vehicle: saline with Tween-80
[2] = dose: 200.0 mg/kg/injection, schedule: Q04DX003 (ip), vehicle: saline with Tween-80
[3] = dose: 400.0 mg/kg/injection, schedule: Q04DX003 (ip), vehicle: saline with Tween-80
[4] = dose: 50.0 mg/kg/injection, schedule: Q01DX009 (ip), vehicle: saline with Tween-80
[5] = dose: 100.0 mg/kg/injection, schedule: Q01DX009 (ip), vehicle: saline with Tween-80
[6] = dose: 200.0 mg/kg/injection, schedule: Q01DX009 (ip), vehicle: saline with Tween-80
[7] = dose: 400.0 mg/kg/injection, schedule: Q01DX009 (ip), vehicle: saline with Tween-80
[8] = dose: 50.0 mg/kg/injection, schedule: Q01DX005 (ip), vehicle: saline
[9] = dose: 100.0 mg/kg/injection, schedule: Q01DX005 (ip), vehicle: saline
[10] = dose: 200.0 mg/kg/injection, schedule: Q01DX005 (ip), vehicle: saline
[11] = dose: 12.5 mg/kg/injection, schedule: Q01DX005 (ip), vehicle: saline
[12] = dose: 25.0 mg/kg/injection, schedule: Q01DX005 (ip), vehicle: saline
[13] = dose: 50.0 mg/kg/injection, schedule: Q01DX009 (ip), vehicle: saline
[14] = dose: 100.0 mg/kg/injection, schedule: Q01DX009 (ip), vehicle: saline
[15] = dose: 200.0 mg/kg/injection, schedule: Q01DX009 (ip), vehicle: saline
[16] = dose: 50.0 mg/kg/injection, schedule: Q01DX005 (ip), vehicle: saline with Tween-80
[17] = dose: 100.0 mg/kg/injection, schedule: Q01DX005 (ip), vehicle: saline with Tween-80
[18] = dose: 200.0 mg/kg/injection, schedule: Q01DX005 (ip), vehicle: saline with Tween-80
[19] = dose: 200.0 mg/kg/injection, schedule: Q04DX002 (ip), vehicle: saline with Tween-80
[20] = dose: 60.0 mg/kg/injection, schedule: Q01DX005 (ip), vehicle: Klucel (hydroxypropylcellulose) (HPC)
[21] = dose: 120.0 mg/kg/injection, schedule: Q01DX005 (ip), vehicle: Klucel (hydroxypropylcellulose) (HPC)

For CC[C@@]1(O)C(=O)OCc2c1cc1n(c2=O)Cc2cc3c(N)cccc3nc2-1, the T/C (dose: 0.12 mg/kg/injection, schedule: Q01DX005 (ip), vehicle: saline with Tween-80) was 153 % of control, the T/C (dose: 0.25 mg/kg/injection, schedule: Q01DX005 (ip), vehicle: saline with Tween-80) was 153 % of control and the T/C (dose: 0.5 mg/kg/injection, schedule: Q01DX005 (ip), vehicle: saline with Tween-80) was 180 % of control and 204 % of control. For the same compound, the T/C (dose: 1.0 mg/kg/injection, schedule: Q01DX005 (ip), vehicle: saline with Tween-80) was 180 % of control.
For FC(F)(F)c1nc(Cc2ccccc2)c(C(F)(F)F)o1, the T/C [1] was 93 % of control, the T/C [2] was 93 % of control and the T/C [3] was 95 % of control.
[N-]=[N+]=C1N=Nc2ccccc21 was tested, and the T/C (dose: 0.78 mg/kg/injection, schedule: Q01DX005 (ip), vehicle: Klucel (hydroxypropylcellulose) (HPC)) was 99 % of control, the T/C (dose: 1.56 mg/kg/injection, schedule: Q01DX005 (ip), vehicle: Klucel (hydroxypropylcellulose) (HPC)) was 107 % of control and the T/C (dose: 3.12 mg/kg/injection, schedule: Q01DX005 (ip), vehicle: Klucel (hydroxypropylcellulose) (HPC)) was 107 % of control.
In the case of COc1cc(C2C(C(=O)OC/C=C/c3ccc4c(c3)OCO4)C(c3cc(OC)c(OC)c(OC)c3)C2C(=O)OC/C=C/c2ccc3c(c2)OCO3)cc(OC)c1OC (stereo not given), the T/C [4] is reported as 87 % of control, the T/C [5] is reported as 93 % of control and the T/C [6] is reported as 95 % of control. For the same compound, the T/C [7] was 102 % of control.
For Cc1[nH]c2ccc(N(C)C)cc2c(=O)c1Cc1c(C)[nH]c2ccc(N(C)C)cc2c1=O, the T/C (dose: 60.0 mg/kg/injection, schedule: Q01DX005 (ip), vehicle: saline with Tween-80) was 92 % of control and the T/C (dose: 120.0 mg/kg/injection, schedule: Q01DX005 (ip), vehicle: saline with Tween-80) was 89 % of control.
In the case of CC(=O)OCC1OC2OC(C)(C)OC2C1O (stereo not given), the T/C [8] is reported as 96 % of control, the T/C [9] is reported as 100 % of control and the T/C [10] is reported as 105 % of control.
CCCCN(CCCC)C(=N)c1ccnc2ccccc12 was tested, and the T/C (dose: 6.25 mg/kg/injection, schedule: Q01DX005 (ip), vehicle: saline) was 95 % of control, the T/C [11] was 97 % of control and the T/C [12] was 97 % of control.
O=S(/N=C/c1ccccc1)c1ccc(Cl)cc1 (stereo not given) was tested, and the T/C [4] was 96 % of control and the T/C [5] was 89 % of control.
OC(C/C=C/c1ccccc1)(c1ccccc1)c1ccccc1 was tested, and the T/C [13] was 109 % of control, the T/C [14] was 100 % of control and the T/C [15] was 91 % of control.
For Cc1ccc2[nH]c(=O)oc2c1, the T/C (dose: 25.0 mg/kg/injection, schedule: Q04DX002 (ip), vehicle: saline with Tween-80) was 90 % of control and the T/C (dose: 50.0 mg/kg/injection, schedule: Q04DX002 (ip), vehicle: saline with Tween-80) was 101 % of control.
For NCc1c(Cl)c(Cl)c(Cl)c(CN)c1Cl, the T/C (dose: 50.0 mg/kg/injection, schedule: Q04DX003 (ip), vehicle: saline with Tween-80) was 100 % of control, the T/C [1] was 100 % of control and the T/C [2] was 105 % of control.
[O-][n+]1nn(CC(O)CCl)c2ccccc21 (stereo not given) was tested, and the T/C [16] was 102 % of control, the T/C [17] was 102 % of control and the T/C [1] was 103 % of control. For the same compound, the T/C [18] was 100 % of control, the T/C [2] was 98 % of control and the T/C [3] was 93 % of control.
With CC(C)(N)COC(=O)c1ccccc1C(=O)O the T/C (dose: 100.0 mg/kg/injection, schedule: Q01DX001 (ip), vehicle: saline) was 90 % of control, the T/C (dose: 200.0 mg/kg/injection, schedule: Q01DX001 (ip), vehicle: saline) was 95 % of control and the T/C (dose: 400.0 mg/kg/injection, schedule: Q01DX001 (ip), vehicle: saline) was 104 % of control.
With CCC(N)C(=O)NCC(=O)NCC(=O)O (stereo not drawn) (H-[ξAbu]-Gly-Gly-OH) the T/C [8] was 103 % of control, the T/C [9] was 103 % of control and the T/C [10] was 103 % of control.
COC(=O)CC(c1ccc(OC)cc1)c1cc2c(cc1OC)OCO2 (stereo not given) was tested, and the T/C (dose: 50.0 mg/kg/injection, schedule: Q01DX005 (ip), vehicle: distilled water + Tween-80) was 97 % of control, the T/C (dose: 100.0 mg/kg/injection, schedule: Q01DX005 (ip), vehicle: distilled water + Tween-80) was 97 % of control and the T/C (dose: 200.0 mg/kg/injection, schedule: Q01DX005 (ip), vehicle: distilled water + Tween-80) was 97 % of control.
In the case of CC1(C)OC(CP(=O)(c2ccccc2)c2ccccc2)C(CP(=O)(c2ccccc2)c2ccccc2)O1 (stereo not given), the T/C (dose: 50.0 mg/kg/injection, schedule: Q01DX005 (ip), vehicle: Klucel (hydroxypropylcellulose) (HPC)) is reported as 97 % of control, the T/C (dose: 100.0 mg/kg/injection, schedule: Q01DX005 (ip), vehicle: Klucel (hydroxypropylcellulose) (HPC)) is reported as 97 % of control and the T/C (dose: 200.0 mg/kg/injection, schedule: Q01DX005 (ip), vehicle: Klucel (hydroxypropylcellulose) (HPC)) is reported as 94 % of control.
With CC/C(=N/NS(=O)(=O)c1ccc(C)cc1)c1ccc(C(C)(C)C)cc1 the T/C [13] was 99 % of control and 96 % of control, the T/C [14] was 102 % of control and the T/C [15] was 102 % of control and 87 % of control.
COC(=O)c1csc(-c2csc(CCNC(=O)c3ccccc3)n2)n1 was tested, and the T/C (dose: 100.0 mg/kg/injection, schedule: Q04DX002 (ip), vehicle: saline with Tween-80) was 93 % of control, the T/C [19] was 95 % of control and the T/C (dose: 400.0 mg/kg/injection, schedule: Q04DX002 (ip), vehicle: saline with Tween-80) was 96 % of control.
For CN1CCC23c4c5ccc(O)c4OC2C(O)C=CC3C1C5 (stereo not given), the T/C (dose: 32.0 mg/kg/injection, schedule: Q01DX009 (ip), vehicle: saline) was 97 % of control, the T/C (dose: 64.0 mg/kg/injection, schedule: Q01DX009 (ip), vehicle: saline) was 106 % of control and the T/C (dose: 128.0 mg/kg/injection, schedule: Q01DX009 (ip), vehicle: saline) was 95 % of control.
In the case of O=C1OC(CO)C(O)C(O)C1O (stereo not given), the T/C [8] is reported as 100 % of control, the T/C [9] is reported as 93 % of control and the T/C [10] is reported as 96 % of control.
With CC(C)CC(NC(=O)CCl)C(=O)O (stereo not given) the T/C (dose: 25.0 mg/kg/injection, schedule: Q01DX009 (ip), vehicle: saline with Tween-80) was 108 % of control, the T/C [4] was 108 % of control and 110 % of control and the T/C [5] was 106 % of control and 113 % of control. For the same compound, the T/C [6] was 96 % of control and the T/C [7] was 108 % of control.
In the case of Oc1cc2c(cc1C(c1ccc(Cl)cc1)N1CCN(C(c3ccc(Cl)cc3)c3cc4c(cc3O)OCO4)CC1)OCO2 (stereo not given), the T/C [20] is reported as 89 % of control and the T/C [21] is reported as 88 % of control.
In the case of N=C(N)COc1ccccc1, the T/C [11] is reported as 95 % of control, the T/C [12] is reported as 95 % of control and the T/C [8] is reported as 99 % of control and 101 % of control.
In the case of Cc1ccc(NC(=O)Oc2ccc(C#N)cc2)cc1Cl, the T/C [20] is reported as 118 % of control, the T/C [21] is reported as 111 % of control and the T/C (dose: 240.0 mg/kg/injection, schedule: Q01DX005 (ip), vehicle: Klucel (hydroxypropylcellulose) (HPC)) is reported as 118 % of control.
In the case of CC(NC(=O)c1cccc2c1Oc1ccccc1S2)C(=O)O (stereo not given), the T/C (dose: 50.0 mg/kg/injection, schedule: Q04DX002 (ip), vehicle: saline) is reported as 104 % of control, the T/C (dose: 100.0 mg/kg/injection, schedule: Q04DX002 (ip), vehicle: saline) is reported as 98 % of control and the T/C [19] is reported as 93 % of control. For the same compound, the T/C (dose: 200.0 mg/kg/injection, schedule: Q04DX002 (ip), vehicle: saline) was 99 % of control.
C#CC(=O)CCC was tested, and the T/C (dose: 3.75 mg/kg/injection, schedule: Q01DX005 (ip), vehicle: saline with Tween-80) was 113 % of control, the T/C (dose: 7.5 mg/kg/injection, schedule: Q01DX005 (ip), vehicle: saline with Tween-80) was 106 % of control and the T/C (dose: 15.0 mg/kg/injection, schedule: Q01DX005 (ip), vehicle: saline with Tween-80) was 105 % of control.
With COc1ccc2[nH]c(C(=O)N(C)C)cc2c1 the T/C [16] was 100 % of control, the T/C [17] was 104 % of control and the T/C [18] was 101 % of control.
